Reference: the supplement of paper PMC10883282
± gives the standard deviation of the averaged measurements.

How the values were obtained:
Test in all cases: relative viability vs DMSO control (72 h) (fraction); higher = more viable cells
[1] = system: HS729
Outline: (§1)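 Relative viability was measured with ATPLite and expressed as percent growth, averaged across up to triplicate wells. Sarcoma cell lines had been seeded in 384-well plates to reach 80–90% confluence, dosed after 24 h, and incubated 72 h at 37 °C, 5% CO2. All data were rescaled on a scale where 1 is full and 0 is none.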

[2] = system: SK-LMS-1
Outline: as §1

[3] = system: MES-SA
Outline: as §1

[4] = system: G401
Outline: as §1

[5] = system: SW872
Outline: as §1

[6] = system: A204
Outline: as §1

[7] = system: SYO-1
Outline: as §1

[8] = system: KHOS-NP
Outline: as §1

[9] = system: SW684
Outline: as §1

[10] = system: VA-ES-BJ
Outline: as §1

[11] = system: SW1353
Outline: as §1

[12] = system: HT1080
Outline: as §1

Cc1cccc(-c2[nH]c(CNc3ccccc3F)nc2-c2ccc3ncnn3c2)n1 [Vactosertib]
relative viability ([1]; 0.00017 µM): 0.964 ± 0.013
relative viability ([1]; 0.00051 µM): 0.969 ± 0.016
relative viability ([1]; 0.00152 µM): 0.938 ± 0.023
relative viability ([1]; 0.00457 µM): 0.962 ± 0.015
relative viability ([1]; 0.01372 µM): 0.928 ± 0.011
relative viability ([1]; 0.04115 µM): 0.939 ± 0.025
relative viability ([1]; 0.1235 µM): 0.882 ± 0.03
relative viability ([1]; 0.3704 µM): 0.849 ± 0.037
relative viability ([1]; 1.111 µM): 0.787 ± 0.034
relative viability ([1]; 3.333 µM): 0.73 ± 0.027
relative viability ([1]; 10 µM): 0.68 ± 0.04
relative viability ([2]; 0.00017 µM): 0.968 ± 0.026
relative viability ([2]; 0.00051 µM): 0.963 ± 0.052
relative viability ([2]; 0.00152 µM): 0.981 ± 0.057
relative viability ([2]; 0.00457 µM): 0.982 ± 0.063
relative viability ([2]; 0.01372 µM): 0.984 ± 0.02
relative viability ([2]; 0.04115 µM): 0.978 ± 0.019
relative viability ([2]; 0.1235 µM): 0.95 ± 0.016
relative viability ([2]; 0.3704 µM): 0.918 ± 0.064
relative viability ([2]; 1.111 µM): 0.988 ± 0.032
relative viability ([2]; 3.333 µM): 0.992 ± 0.025
relative viability ([2]; 10 µM): 0.96 ± 0.019
relative viability ([3]; 0.00017 µM): 0.892 ± 0.03
relative viability ([3]; 0.00051 µM): 0.881 ± 0.0083
relative viability ([3]; 0.00152 µM): 0.885 ± 0.04
relative viability ([3]; 0.00457 µM): 0.866 ± 0.032
relative viability ([3]; 0.01372 µM): 0.877 ± 0.022
relative viability ([3]; 0.04115 µM): 0.901 ± 0.028
relative viability ([3]; 0.1235 µM): 0.894 ± 0.029
relative viability ([3]; 0.3704 µM): 0.897 ± 0.0097
relative viability ([3]; 1.111 µM): 0.842 ± 0.038
relative viability ([3]; 3.333 µM): 0.873 ± 0.013
relative viability ([3]; 10 µM): 0.861 ± 0.031
relative viability ([4]; 0.00017 µM): 0.942 ± 0.043
relative viability ([4]; 0.00051 µM): 0.937 ± 0.038
relative viability ([4]; 0.00152 µM): 0.969 ± 0.029
relative viability ([4]; 0.00457 µM): 0.984 ± 0.038
relative viability ([4]; 0.01372 µM): 0.97 ± 0.065
relative viability ([4]; 0.04115 µM): 0.937 ± 0.039
relative viability ([4]; 0.1235 µM): 0.9496 ± 0.0058
relative viability ([4]; 0.3704 µM): 0.978 ± 0.034
relative viability ([4]; 1.111 µM): 0.9638 ± 0.0026
relative viability ([4]; 3.333 µM): 0.967 ± 0.058
relative viability ([4]; 10 µM): 0.923 ± 0.043
relative viability ([5]; 0.00017 µM): 0.928 ± 0.04
relative viability ([5]; 0.00051 µM): 0.938 ± 0.055
relative viability ([5]; 0.00152 µM): 0.932 ± 0.068
relative viability ([5]; 0.00457 µM): 0.958 ± 0.047
relative viability ([5]; 0.01372 µM): 0.979 ± 0.027
relative viability ([5]; 0.04115 µM): 0.95 ± 0.049
relative viability ([5]; 0.1235 µM): 0.969 ± 0.024
relative viability ([5]; 0.3704 µM): 0.999 ± 0.043
relative viability ([5]; 1.111 µM): 1.06 ± 0.02
relative viability ([5]; 3.333 µM): 1.062 ± 0.01
relative viability ([5]; 10 µM): 1.02 ± 0.018
relative viability ([6]; 0.00017 µM): 1.02 ± 0.052
relative viability ([6]; 0.00051 µM): 1.02 ± 0.031
relative viability ([6]; 0.00152 µM): 1.02 ± 0.014
relative viability ([6]; 0.00457 µM): 1.01 ± 0.031
relative viability ([6]; 0.01372 µM): 1.02 ± 0.082
relative viability ([6]; 0.04115 µM): 1.03 ± 0.053
relative viability ([6]; 0.1235 µM): 0.983 ± 0.048
relative viability ([6]; 0.3704 µM): 1.04 ± 0.044
relative viability ([6]; 1.111 µM): 1.03 ± 0.088
relative viability ([6]; 3.333 µM): 0.953 ± 0.012
relative viability ([6]; 10 µM): 0.822 ± 0.08
relative viability ([7]; 0.00017 µM): 0.9167 ± 0.0083
relative viability ([7]; 0.00051 µM): 0.925 ± 0.017
relative viability ([7]; 0.00152 µM): 0.929 ± 0.015
relative viability ([7]; 0.00457 µM): 0.895 ± 0.023
relative viability ([7]; 0.01372 µM): 0.894 ± 0.036
relative viability ([7]; 0.04115 µM): 0.872 ± 0.04
relative viability ([7]; 0.1235 µM): 0.86 ± 0.031
relative viability ([7]; 0.3704 µM): 0.808 ± 0.037
relative viability ([7]; 1.111 µM): 0.773 ± 0.023
relative viability ([7]; 3.333 µM): 0.697 ± 0.025
relative viability ([7]; 10 µM): 0.591 ± 0.04
relative viability ([8]; 0.00017 µM): 1.05 ± 0.045
relative viability ([8]; 0.00051 µM): 1.05 ± 0.032
relative viability ([8]; 0.00152 µM): 1.05 ± 0.056
relative viability ([8]; 0.00457 µM): 1.04 ± 0.047
relative viability ([8]; 0.01372 µM): 1.03 ± 0.051
relative viability ([8]; 0.04115 µM): 1.02 ± 0.029
relative viability ([8]; 0.1235 µM): 1.046 ± 0.0091
relative viability ([8]; 0.3704 µM): 1.05 ± 0.029
relative viability ([8]; 1.111 µM): 1.05 ± 0.025
relative viability ([8]; 3.333 µM): 1.05 ± 0.02
relative viability ([8]; 10 µM): 1.011 ± 0.0063
relative viability ([9]; 0.00017 µM): 1.15 ± 0.046
relative viability ([9]; 0.00051 µM): 1.08 ± 0.037
relative viability ([9]; 0.00152 µM): 1.08 ± 0.039
relative viability ([9]; 0.00457 µM): 1.1 ± 0.071
relative viability ([9]; 0.01372 µM): 1.07 ± 0.038
relative viability ([9]; 0.04115 µM): 1.06 ± 0.064
relative viability ([9]; 0.1235 µM): 1.07 ± 0.011
relative viability ([9]; 0.3704 µM): 1.04 ± 0.015
relative viability ([9]; 1.111 µM): 1.08 ± 0.026
relative viability ([9]; 3.333 µM): 1.07 ± 0.07
relative viability ([9]; 10 µM): 1.11 ± 0.018
relative viability ([10]; 0.00017 µM): 1 ± 0.066
relative viability ([10]; 0.00051 µM): 1 ± 0.015
relative viability ([10]; 0.00152 µM): 1.006 ± 0.0055
relative viability ([10]; 0.00457 µM): 1.02 ± 0.015
relative viability ([10]; 0.01372 µM): 1.026 ± 0.0052
relative viability ([10]; 0.04115 µM): 1.04 ± 0.052
relative viability ([10]; 0.1235 µM): 1.038 ± 0.0089
relative viability ([10]; 0.3704 µM): 1.08 ± 0.019
relative viability ([10]; 1.111 µM): 1.11 ± 0.033
relative viability ([10]; 3.333 µM): 1.11 ± 0.029
relative viability ([10]; 10 µM): 1.11 ± 0.018
relative viability ([11]; 0.00017 µM): 0.904 ± 0.015
relative viability ([11]; 0.00051 µM): 0.964 ± 0.047
relative viability ([11]; 0.00152 µM): 0.89 ± 0.047
relative viability ([11]; 0.00457 µM): 0.911 ± 0.098
relative viability ([11]; 0.01372 µM): 0.947 ± 0.074
relative viability ([11]; 0.04115 µM): 0.953 ± 0.041
relative viability ([11]; 0.1235 µM): 0.96 ± 0.031
relative viability ([11]; 0.3704 µM): 0.946 ± 0.038
relative viability ([11]; 1.111 µM): 0.968 ± 0.05
relative viability ([11]; 3.333 µM): 0.893 ± 0.038
relative viability ([11]; 10 µM): 0.875 ± 0.021
relative viability ([12]; 0.00017 µM): 1.02 ± 0.051
relative viability ([12]; 0.00051 µM): 1 ± 0.033
relative viability ([12]; 0.00152 µM): 0.967 ± 0.046
relative viability ([12]; 0.00457 µM): 1.01 ± 0.017
relative viability ([12]; 0.01372 µM): 1.042 ± 0.01
relative viability ([12]; 0.04115 µM): 1.01 ± 0.02
relative viability ([12]; 0.1235 µM): 1.04 ± 0.016
relative viability ([12]; 0.3704 µM): 1.05 ± 0.072
relative viability ([12]; 1.111 µM): 1.02 ± 0.012
relative viability ([12]; 3.333 µM): 1.02 ± 0.058
relative viability ([12]; 10 µM): 1.01 ± 0.043
